Experimental data as given in PubChem BioAssay (NCI).
Values joined by “and” are separate entries in the source; they are usually repeats but may differ in a detail not shown here. Equal values may be shown once.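 Method: 48-hour compound exposure of cells in 96-well plates, five concentrations, linear interpolation of endpoints. GI50 = concentration required for 50% inhibition of growth. TGI marks complete inhibition of growth.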

Columns and labels:
Assay in all cases: NCI tumour cell line growth inhibition, 48 h
[1] = tested on: TK-10 renal
[2] = tested on: RXF 393 renal
[3] = tested on: HT29 colon
[4] = tested on: SF-295 CNS
[5] = tested on: HOP-92 NSCLC
[6] = tested on: SN12C renal
[7] = tested on: MDA-MB-435
[8] = tested on: UO-31 renal
[9] = tested on: PC-3 prostate
[10] = tested on: HCT-116 colon

Row | SMILES | GI50 [1] | TGI [1] | GI50 [2] | TGI [2] | GI50 [3] | TGI [3] | GI50 [4] | TGI [4] | GI50 [5] | TGI [5] | GI50 [6] | TGI [6] | GI50 [7] | TGI [7] | GI50 [8] | TGI [8] | GI50 [9] | TGI [9] | GI50 [10] | TGI [10]
1 | CC1(C)CC(n2cnc(-c3ccc(F)cc3)c2-c2ccnc(N)n2)CC(C)(C)N1 | 16.1 µM | > 25 µM | > 24.1 µM | > 25 µM | 11.1 µM | > 25 µM | > 25 µM | > 25 µM | 7.19 µM | > 25 µM | 17.9 µM | > 25 µM | > 25 µM | > 25 µM | 16.6 µM | > 25 µM | > 25 µM | > 25 µM | 15.1 µM | > 25 µM
2 | CCN=c1cc2sc3cc(NCC)c(C)cc3nc-2cc1C | 2.04 µM | 6.94 µM | 3.22 µM | 18 µM | 2.98 µM | 10.4 µM | 0.669 µM | 4.81 µM | 0.652 µM | 5.62 µM | 1.5 µM | 12.5 µM | 1.55 µM | 4.33 µM | 2.16 µM | 16.4 µM | 0.133 µM | 4.72 µM | 0.361 µM | 2.01 µM
3 | c1ccc2c(c1)-c1ccccc1C2N1CC2CCC(CC2)C1 |  | > 100 µM |  | 33.7 µM |  | 37.6 µM |  | 38.1 µM |  | 48.5 µM |  | 55.6 µM |  | 73.4 µM |  | 94.6 µM |  | 72.1 µM |  | 46.9 µM
4 | COc1cc2c(Oc3ccc4[nH]c(C)cc4c3F)ccnc2cc1OCC1(N)CC1 | 7.89 µM | 26.2 µM | 0.671 µM | 4.22 µM | 0.874 µM | 3.3 µM | 1.07 µM | 3.92 µM | 1.03 µM | 7.11 µM | 1.78 µM | 7.56 µM | 0.31 µM | 1.21 µM | 0.864 µM | 3.69 µM | 1.36 µM | 13.4 µM | 0.745 µM | 10.6 µM
5 | C=C[C@H]1CCC/C=C/[C@@H]2C[C@H](O)C[C@H]2[C@H](O)/C=C/C(=O)O1 | 0.0393 µM | 0.5 µM | < 0.0137 µM | < 0.0193 µM | 0.0244 µM | 0.0632 µM | 0.0537 µM | > 100 µM | 0.0289 µM | 2.99 µM | 0.0374 µM | > 100 µM | 0.043 µM | > 100 µM | 0.0341 µM | > 100 µM | 0.0458 µM | > 100 µM | 0.0238 µM | 0.0576 µM
6 | Cc1cc(I)cc(CN(C)CCN2CCCC2)c1O | 18.6 µM | 39.3 µM | 20.7 µM | 63.6 µM | 17.3 µM | 35.5 µM | 13.1 µM | 36.6 µM | 16.8 µM | 68.1 µM | 41.3 µM | > 100 µM | 18.3 µM | 42.4 µM | 28.7 µM | > 88.9 µM | 28.2 µM | > 100 µM | 18.3 µM | > 88.1 µM
7 | O=P([O-])(O)OP(=O)([O-])O.[NH-][C@@H]1CCCC[C@H]1[NH-].[Pt+4] | 52.4 µM | > 100 µM | 41.7 µM and 13.6 µM | > 100 µM | 5.67 µM and 3.09 µM | > 100 µM | 26.2 µM and 14.5 µM | > 100 µM | > 100 µM and 12.2 µM | > 100 µM | 17.6 µM and 8.78 µM | > 100 µM | 11.8 µM and 4.04 µM | > 100 µM and 27.4 µM | 32.2 µM and 4.83 µM | > 100 µM and 30.5 µM | > 100 µM and 20.3 µM | > 100 µM | 5.01 µM and 2.61 µM | > 100 µM
8 | O=C(Nc1cc[c]([Sb](=[O])([OH])[OH])cc1)c1ccccc1 | > 100 µM | > 100 µM | > 100 µM | > 100 µM | > 100 µM | > 100 µM | > 100 µM | > 100 µM | > 100 µM | > 100 µM | > 100 µM | > 100 µM | > 100 µM | > 100 µM | > 100 µM | > 100 µM | > 100 µM | > 100 µM | > 100 µM | > 100 µM
9 | CCOc1ccc(Nc2nc(-c3ccc4c(c3)NC(=O)CO4)cs2)cc1 | 9.98 µM | > 100 µM | 16.1 µM | 62.4 µM | 5.74 µM | > 100 µM | 4.92 µM | > 100 µM | 12.4 µM | > 100 µM | 49.4 µM | > 100 µM | 2.95 µM | 11.3 µM | 5.47 µM | > 100 µM | 3.04 µM | 32.8 µM | 4.01 µM | > 100 µM
10 | C=C1C(=O)[C@@]23CC1C(O)[C@@H](OC(C)=O)[C@@H]2C1(C)C(OC(C)=O)C[C@@H](OC(C)=O)C(C)(C)[C@@H]1C[C@H]3OC(C)=O (stereo partly drawn) | > 10 µM and 2.29 µg/mL | > 10 µM and 5.15 µg/mL | 362 nM and 1.8 µg/mL | 4.21 µM and 5.35 µg/mL | 6.13 µM and 2.61 µg/mL | > 10 µM and 7.22 µg/mL | > 10 µM and 11.6 µg/mL | > 10 µM and 25.6 µg/mL | 3.6 µM and 1.95 µg/mL | > 10 µM and 3.84 µg/mL | 5.5 µg/mL | > 10 µM and 17 µg/mL | 2.88 µg/mL | 9.51 µg/mL | > 10 µM and 6.65 µg/mL | > 10 µM and 16.3 µg/mL | 10.6 µg/mL | > 10 µM and 22.4 µg/mL | 1.45 µM and 1.46 µg/mL | 2.98 µM and 2.89 µg/mL
11 | Cc1ccc(C(=O)C(Cl)C(Cl)c2ccc(C)cc2)cc1 (stereo not drawn) |  | 8.13 µM |  | 23.4 µM |  | 4.31 µM |  | 23.7 µM |  | 5.24 µM |  | 3.88 µM |  | 10.8 µM |  | 3.73 µM |  | 18.4 µM |  | 4 µM
12 | Cc1cc(-c2nnc(N)nc2-c2ccc(F)cc2)cc(Cl)n1 | 42.6 µM | > 100 µM | 87.2 µM | > 100 µM | > 100 µM | > 100 µM | 72.7 µM | > 100 µM | 11.5 µM | > 100 µM | > 100 µM | > 100 µM | > 100 µM | > 100 µM | 24.3 µM | > 100 µM | 76.9 µM | > 100 µM | 75.4 µM | > 100 µM
13 | Nc1cc(-c2cccc(OC(F)(F)F)c2)nc2ccc(N3CCCC3)cc12 | 9.57 µM and 13 µM and > 23.5 µM | 34.6 µM and > 100 µM | 0.0474 µM and 0.0376 µM and 0.0305 µM | 16.4 µM and > 100 µM and > 53.5 µM | 0.0355 µM and 0.0338 µM and 0.0354 µM |  | 0.0584 µM and 0.0473 µM and 0.0448 µM | 5.61 µM and 18.9 µM and > 50.5 µM | 0.0888 µM and 0.184 µM and 0.0868 µM | 18.2 µM and > 100 µM and 74.2 µM | 0.113 µM and 0.0716 µM and 0.0692 µM | 19.7 µM and > 100 µM | < 0.0105 µM | 0.0455 µM and 0.0346 µM and 0.034 µM | 0.119 µM and 0.15 µM and 0.0758 µM | 17.7 µM and > 100 µM | 0.0455 µM and 0.0429 µM and 0.0372 µM | 26.9 µM and > 100 µM | 0.0384 µM and 0.0323 µM and 0.0258 µM | 
